Assay results published in US7678913B2, “Ureas as factor Xa inhibitors” (Portola Pharmaceuticals, Inc., priority 2004, dated 2010).

Target: T1, human plasma protein factor Xa (Homo sapiens, UniProt P00742)
T1 construct: measure proteolytic activity of the enzyme (factor Xa); purchased Haematologic Technologies (Essex Junction, Vt.); host or cells: human plasma
Test: Factor Xa IC50 determination (cleavage of chromogenic substrate S-2765)
Assay type: biochemical
Conditions: fXa 1 nM, S-2765 100 μM, Tris buffered saline pH 7.4, room temperature
Excerpt: This example illustrates methods for evaluating the compounds of the invention, along with results obtained for such assays. The in vitro and in vivo Factor Xa isoform activities of the inventive compounds can be determined by various procedures known in the art, such as a test for their ability to inhibit the activity of the Factor Xa isoform. […] The IC50 value is the concentration (in nM) of the compound required to provide 50% inhibition of Factor Xa isoform.
An in vitro assay for detecting and measuring inhibition activity against Factor Xa is as follows:
• The substrate S-2765 (Z-D-Arg-Gly-Arg-pNA.HCl) was obtained from Diapharma (West Chester, Ohio). Enzyme: • The human plasma protein factor Xa was purchased from Haematologic Technologies (Essex Junction, Vt.). Methods
All assays, which are performed in 96-well microtiter plates, measure proteolytic activity of the enzyme (factor Xa) by following cleavage of paranitroanilide substrate. The assay buffer used for proteolytic assays was Tris buffered saline (20 mM Tris, 150 mM NaCl, 5 mM CaCl2, 0.1% Bovine serum albumin (BSA), 5% Dimethly Sulfoxide (DMSO) pH 7.4). In a 96-well microtiter plate, inhibitor was serially diluted to give a range of concentrations from 0.01 nM to 10 μM (final). Duplicate sets of wells were assayed and control wells without inhibitor were included. Enzyme was added to each well,(fXa concentration=1nM), the plate was shaken for 5 seconds and then incubated for 5 minutes at room temperature. S2765 was added (100 μM final) and the plate was shaken for 5 seconds (final liquid volume in each well was 200 μl). The degree of substrate hydrolysis was measured at 405 nm on a Thermomax plate reader (Molecular Devices, Sunnyvale, Calif.) for 2 minutes. The initial velocities (mOD/min), for each range of inhibitor concentrations, were fitted to a four parameter equation using Softmax data analysis software. The parameter C, derived from the resulting curve-fit, corresponded to the concentration for half maximal inhibition (IC50).

T1 sequence (P00742 235-488 limits assumed): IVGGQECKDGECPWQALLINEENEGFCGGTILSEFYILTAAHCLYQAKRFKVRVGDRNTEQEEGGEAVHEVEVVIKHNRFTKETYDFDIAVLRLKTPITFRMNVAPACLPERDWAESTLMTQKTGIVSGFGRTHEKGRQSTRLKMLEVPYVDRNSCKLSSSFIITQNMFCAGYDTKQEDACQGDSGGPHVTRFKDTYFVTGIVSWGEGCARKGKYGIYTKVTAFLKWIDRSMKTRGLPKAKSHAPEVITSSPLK
T1 sequence (P00742 41-179 partner limits assumed): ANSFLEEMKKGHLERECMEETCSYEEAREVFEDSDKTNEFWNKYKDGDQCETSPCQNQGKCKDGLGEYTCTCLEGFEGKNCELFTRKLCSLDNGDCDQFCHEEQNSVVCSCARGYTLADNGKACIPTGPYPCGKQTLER

IC50 [nM]	Structure (SMILES)
≤ 100	CN1CCN=C1c1ccc(NC(=O)CNC(=O)Nc2ccc(Cl)cc2)cc1 [Example 1, N-[4-(1-methyl-4,5-dihydro-1H-imidazol-2-yl)phenyl]-2-(4-chlorophenylaminocarbonylamino)-acetamide]
≤ 100	CC(C)C(NC(=O)Nc1ccc(Cl)cc1)C(=O)Nc1ccc(C2=NCCN2C)cc1 (centres unmarked) [Example 2, N-[4-(1-methyl-4,5-dihydro-1H-imidazol-2-yl)phenyl]-2-isopropyl-2-(4-chlorophenylaminocarbonylamino)-acetamide]
100 to 500	CN1CCN=C1c1ccc(NC(=O)C(NC(=O)Nc2ccc(Cl)cc2)C(C)(C)C)cc1 (centres unmarked) [Example 3, N-[4-(1-methyl-4,5-dihydro-1H-imidazol-2-yl)phenyl]-2-(1,1-dimethylethyl)-2-(4-chlorophenylaminocarbonylamino)-acetamide]
≥ 500	CN1CCN=C1c1ccc(NC(=O)C(CC(C)(C)C)NC(=O)Nc2ccc(Cl)cc2)cc1 (centres unmarked) [Example 4, N-[4-(1-methyl-4,5-dihydro-1H-imidazol-2-yl)phenyl]-2-(2,2-dimethylpropyl)-2-(4-chlorophenylaminocarbonylamino)-acetamide]
≤ 100	CN1CCN=C1c1ccc(NC(=O)C(Cc2ccccc2)NC(=O)Nc2ccc(Cl)cc2)cc1 (centres unmarked) [Example 5, N-[4-(1-methyl-4,5-dihydro-1H-imidazol-2-yl)phenyl]-2-benzyl-2-(4-chlorophenylaminocarbonylamino)-acetamide]
≤ 100	CN1CCN=C1c1ccc(NC(=O)C(Cc2c[nH]c3ccccc23)NC(=O)Nc2ccc(Cl)cc2)cc1 (centres unmarked) [Example 6, N-[4-(1-methyl-4,5-dihydro-1H-imidazol-2-yl)phenyl]-2-indol-3-ylmethyl-2-(4-chlorophenylaminocarbonylamino)-acetamide]
≤ 100	CN1CCN=C1c1ccc(NC(=O)C(Cc2c[nH]cn2)NC(=O)Nc2ccc(Cl)cc2)cc1 (centres unmarked) [Example 7, N-[4-(1-methyl-4,5-dihydro-1H-imidazol-2-yl)phenyl]-2-imidazol-4-ylmethyl-2-(4-chlorophenylaminocarbonylamino)-acetamide]
≤ 100	CN1CCN=C1c1ccc(NC(=O)C(Cc2cn(C)c3ccccc23)NC(=O)Nc2ccc(Cl)cc2)cc1 (centres unmarked) [Example 8, N-[4-(1-methyl-4,5-dihydro-1H-imidazol-2-yl)phenyl]-2-(1-methyl-indol-3-ylmethyl)-2-(4-chlorophenylaminocarbonylamino)-acetamide]
100 to 500	CN1CCN=C1c1ccc(NC(=O)C(NC(=O)Nc2ccc(Cl)cc2)c2cccnc2)cc1 (centres unmarked) [Example 9, N-[4-(1-methyl-4,5-dihydro-1H-imidazol-2-yl)phenyl]-2-pyridin-3-yl-2-(4-chlorophenylaminocarbonylamino)-acetamide]
≤ 100	CN1CCN=C1c1ccc(NC(=O)C(NC(=O)Nc2ccc(Cl)cc2)c2ccc(F)cc2)cc1 (centres unmarked) [Example 10, N-[4-(1-methyl-4,5-dihydro-1H-imidazol-2-yl)phenyl]-2-(4-fluorophenyl)-2-(4-chlorophenylaminocarbonylamino)-acetamide]
≤ 100	CN1CCN=C1c1ccc(NC(=O)C(NC(=O)Nc2ccc(Cl)cc2)c2ccccc2F)cc1 (centres unmarked) [Example 11, N-[4-(1-methyl-4,5-dihydro-1H-imidazol-2-yl)phenyl]-2-(2-fluorophenyl)-2-(4-chlorophenylaminocarbonylamino)-acetamide]
≤ 100	CN1CCN=C1c1ccc(NC(=O)C(NC(=O)Nc2ccc(Cl)cc2)c2cccs2)cc1 (centres unmarked) [Example 12, N-[4-(1-methyl-4,5-dihydro-1H-imidazol-2-yl)phenyl]-2-(2-thienyl)-2-(4-chlorophenylaminocarbonylamino)-acetamide]
≤ 100	CN1CCN=C1c1ccc(NC(=O)C(NC(=O)Nc2ccc(Cl)cc2)c2ccsc2)cc1 (centres unmarked) [Example 13, N-[4-(1-methyl-4,5-dihydro-1H-imidazol-2-yl)phenyl]-2-(3-thienyl)-2-(4-chlorophenylaminocarbonylamino)-acetamide]
≥ 500	CN1CCN=C1c1ccc(NC(=O)C(NC(=O)Nc2ccc(Cl)cc2)(c2ccccc2)c2ccccc2)cc1 [Example 14, N-[4-(1-methyl-4,5-dihydro-1H-imidazol-2-yl)phenyl]-2,2-diphenyl-2-(4-chlorophenylaminocarbonylamino)-acetamide]
100 to 500	CN1CCN=C1c1ccc(NC(=O)C2(NC(=O)Nc3ccc(Cl)cc3)CC2)cc1 [Example 15, N-[4-(1-methyl-4,5-dihydro-1H-imidazol-2-yl)phenyl]-1-(4-chlorophenylaminocarbonylamino)-1-cyclopropanecarboxamide]
≤ 100	CN1CCN=C1c1ccc(NC(=O)C(NC(=O)Nc2ccc(Cl)cc2)c2ccccc2)cc1 (centres unmarked) [Example 16, N-[4-(1-methyl-4,5-dihydro-1H-imidazol-2-yl)phenyl]-2-phenyl-2-(4-chlorophenylaminocarbonylamino)-acetamide]
100 to 500	CN1CCN=C1c1ccc(NC(=O)C(NC(=O)Nc2ccc(F)cc2)c2cccs2)cc1 (centres unmarked) [Example 17, N-[4-(1-methyl-4,5-dihydro-1H-imidazol-2-yl)phenyl]-2-(2-thienyl)-2-(4-fluorophenylaminocarbonylamino)-acetamide]
100 to 500	C#Cc1ccc(NC(=O)NC(C(=O)Nc2ccc(C3=NCCN3C)cc2)c2cccs2)cc1 (centres unmarked) [Example 18, N-[4-(1-methyl-4,5-dihydro-1H-imidazol-2-yl)phenyl]-2-(2-thienyl)-2-(4-ethynylphenylaminocarbonylamino)-acetamide]
≤ 100	CN(C)C(=N)c1ccc(NC(=O)C(NC(=O)Nc2ccc(Cl)cc2)c2cccs2)cc1 (centres unmarked) [Example 19, N-[4-(dimethylaminoimino)phenyl]-2-(2-thienyl)-2-(4-chlorophenylamino-carbonylamino)-acetamide]
≤ 100	CCN(C)C(=N)c1ccc(NC(=O)C(NC(=O)Nc2ccc(Cl)cc2)c2cccs2)cc1 (centres unmarked) [Example 20, N-[4-(N-methyl-N-ethylaminoimino)phenyl]-2-(2-thienyl)-2-(4-chlorophenylaminocarbonylamino)-acetamide]
≤ 100	N=C(c1ccc(NC(=O)C(NC(=O)Nc2ccc(Cl)cc2)c2cccs2)cc1)N1CCCC1 (centres unmarked) [Example 21]
≤ 100	N=C(c1ccc(NC(=O)C(NC(=O)Nc2ccc(Cl)cc2)c2cccs2)cc1)N1CCCCC1 (centres unmarked) [Example 22]
≤ 100	CN(C)C(=N)c1ccc(NC(=O)C(NC(=O)Nc2ccc(Cl)cc2)c2ccccc2)cc1 (centres unmarked) [Example 23]
≤ 100	CCN(C)C(=N)c1ccc(NC(=O)C(NC(=O)Nc2ccc(Cl)cc2)c2ccccc2)cc1 (centres unmarked) [Example 24, N-[4-(N-methyl-N-ethylaminoimino)phenyl]-2-phenyl-2-(4-chlorophenylaminocarbonylamino)-acetamide]
≤ 100	CNC(=N)c1ccc(NC(=O)C(NC(=O)Nc2ccc(Cl)cc2)c2ccccc2)cc1 (centres unmarked) [Example 25, N-[4-(methylaminoimino)phenyl]-2-phenyl-2-(4-chlorophenylamino-carbonylamino)-acetamide]
≤ 100	C=CCN(C)C(=N)c1ccc(NC(=O)C(NC(=O)Nc2ccc(Cl)cc2)c2ccccc2)cc1 (centres unmarked) [Example 26, N-[4-(N-methyl-N-allylaminoimino)phenyl]-2-phenyl-2-(4-chlorophenylaminocarbonylamino)-acetamide]
